Values joined by “and” are separate entries in the source; they are usually repeats but may differ in a detail not shown here. Identical values can stand only once. Like-named read-outs stand apart in the source and are kept apart here.
Tests used:
human fXa = molecular target: T1, human fXa (Homo sapiens, UniProt P00742); experiment: biochemical
T1 construct: purchased Chromogenix AB-Instrumentation Laboratories (Milan, Italy)

bovine thrombin = molecular target: T2, bovine thrombin (Bos taurus, UniProt P00735); experiment: thrombin inhibition, chromogenic substrate S-2238; type: biochemical
T2 construct: purchased Sigma-Aldrich (Milan, Italy)

BChE (from horse serum) = molecular target: T3, BChE (from horse serum) (Equus caballus, UniProt P81908); experiment: biochemical; conditions: for inhibition at 50 µM: read-out: inhibition percentage BchE
T3 construct: BChE (from horse serum); from tissue; host or cells: horse serum

α-chymotrypsin = α-chymotrypsin (Bos taurus, UniProt P00766); experiment: α-chymotrypsin inhibition; type: biochemical; conditions: read-out: Ki αCHT
AChE (from electric eel) = molecular target: T4, AChE (from electric eel) (Electrophorus electricus, UniProt O42275); experiment: biochemical; conditions: for inhibition at 50 µM: read-out: inhibition percentage AchE
T4 construct: AChE (from electric eel); from tissue

[1] = Cheng–Prusoff from IC50, pH 8, mean of three measurements, read-out: Ki fXa
[2] = horse serum BChE, Cheng–Prusoff from IC50
[3] = electric eel AChE, Cheng–Prusoff from IC50, read-out: Ki AchE

T3 sequence (P81908 whole entry): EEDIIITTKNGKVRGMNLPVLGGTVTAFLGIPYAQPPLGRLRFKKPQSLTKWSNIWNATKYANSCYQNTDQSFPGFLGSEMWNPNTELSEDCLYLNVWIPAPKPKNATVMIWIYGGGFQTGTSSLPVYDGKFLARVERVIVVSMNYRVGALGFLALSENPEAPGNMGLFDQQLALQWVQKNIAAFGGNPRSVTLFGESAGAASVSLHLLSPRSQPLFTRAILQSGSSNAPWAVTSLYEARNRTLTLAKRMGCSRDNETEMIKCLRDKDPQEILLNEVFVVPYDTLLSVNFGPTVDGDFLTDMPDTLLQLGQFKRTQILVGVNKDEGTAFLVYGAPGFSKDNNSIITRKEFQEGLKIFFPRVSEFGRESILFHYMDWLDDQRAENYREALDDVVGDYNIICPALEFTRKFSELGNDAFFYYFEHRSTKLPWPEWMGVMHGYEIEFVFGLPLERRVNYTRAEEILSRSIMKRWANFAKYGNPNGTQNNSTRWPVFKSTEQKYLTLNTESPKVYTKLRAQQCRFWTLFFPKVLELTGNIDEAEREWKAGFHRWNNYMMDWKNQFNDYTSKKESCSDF
T1 sequence (P00742 235-488 limits assumed): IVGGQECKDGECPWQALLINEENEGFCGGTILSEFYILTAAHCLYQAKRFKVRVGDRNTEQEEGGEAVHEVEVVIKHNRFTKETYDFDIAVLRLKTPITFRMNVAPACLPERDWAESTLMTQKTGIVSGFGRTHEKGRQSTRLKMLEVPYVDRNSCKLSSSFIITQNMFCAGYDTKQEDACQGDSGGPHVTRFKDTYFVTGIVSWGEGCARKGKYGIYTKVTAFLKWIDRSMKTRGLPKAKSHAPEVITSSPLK
T1 sequence (P00742 41-179 partner limits assumed): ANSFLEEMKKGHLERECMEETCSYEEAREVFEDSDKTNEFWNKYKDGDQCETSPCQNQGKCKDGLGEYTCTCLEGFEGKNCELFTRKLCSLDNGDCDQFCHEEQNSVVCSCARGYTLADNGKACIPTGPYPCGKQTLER
T4 sequence (O42275 24-633): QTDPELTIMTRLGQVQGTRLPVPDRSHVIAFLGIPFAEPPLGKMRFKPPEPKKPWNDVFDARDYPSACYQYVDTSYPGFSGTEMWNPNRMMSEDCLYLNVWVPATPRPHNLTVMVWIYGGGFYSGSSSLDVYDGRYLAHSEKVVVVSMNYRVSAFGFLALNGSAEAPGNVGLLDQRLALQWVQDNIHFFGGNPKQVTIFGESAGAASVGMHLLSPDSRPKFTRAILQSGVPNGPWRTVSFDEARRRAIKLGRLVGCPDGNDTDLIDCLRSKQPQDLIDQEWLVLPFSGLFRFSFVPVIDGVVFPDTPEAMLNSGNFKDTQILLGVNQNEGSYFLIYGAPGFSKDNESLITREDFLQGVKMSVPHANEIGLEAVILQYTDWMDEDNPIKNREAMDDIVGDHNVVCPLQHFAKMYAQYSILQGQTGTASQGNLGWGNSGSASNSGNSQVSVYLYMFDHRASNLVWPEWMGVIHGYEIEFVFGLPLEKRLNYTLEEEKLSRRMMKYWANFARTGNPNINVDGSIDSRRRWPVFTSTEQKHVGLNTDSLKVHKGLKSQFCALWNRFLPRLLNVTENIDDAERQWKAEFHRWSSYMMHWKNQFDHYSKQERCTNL

SMILES: N=C(N)c1ccc(NC(=O)CC(=O)NCCCc2ccccc2)cc1 [Compound 18d]
- Ki (human fXa; [1]): 39.8 µM
- Ki (bovine thrombin): 25.5 µM

SMILES: CC(C)(C(=O)NCc1ccc(-c2ccc(F)cc2F)cc1)C(=O)Nc1cccc(C(=N)N)c1 [Compound 19l]
- Ki (BChE (from horse serum); [2]): 1.55 µM
- Ki (human fXa; [1]): 0.214 µM
- Ki (α-chymotrypsin): > 50 µM
- Ki (bovine thrombin): > 50 µM
- Ki (AChE (from electric eel)): 3.74 µM

SMILES: N=C(N)c1cccc(NC(=O)CC(=O)NCc2ccc(-c3cc(F)cc(F)c3)cc2)c1 [Compound 19i]
- Ki (BChE (from horse serum); [2]): 8.02 µM
- Ki (human fXa; [1]): 0.264 µM
- Ki (α-chymotrypsin): 30.2 µM
- Ki (bovine thrombin): 26.7 µM
- inhibition at 50 µM (AChE (from electric eel)): 5%

SMILES: N=C(N)c1cccc(NC(=O)CC(=O)NCc2ccc(-c3ccc(F)cc3)cc2)c1 [Compound 19g]
- inhibition at 50 µM (BChE (from horse serum)): 37%
- Ki (human fXa; [1]): 0.91 µM and 0.907 µM
- Ki (α-chymotrypsin): > 50 µM
- Ki (bovine thrombin): 6.19 µM
- Ki (AChE (from electric eel); [3]): 4.48 µM

SMILES: N=C(N)c1cccc(NC(=O)CC(=O)NCc2ccc(-c3ccc(F)cc3F)cc2)c1 [Compound 19h]
- Ki (BChE (from horse serum); [2]): 1.52 µM
- Ki (human fXa; [1]): 0.057 µM
- Ki (human fXa; read-out: Ki against fXa): 0.057 µM
- Ki (α-chymotrypsin): > 50 µM
- Ki (bovine thrombin): 16.1 µM
- Ki (AChE (from electric eel); [3]): 2.44 µM

SMILES: N=C(N)c1cccc(NC(=O)CC(=O)Nc2ccc(OC3CCNCC3)cc2)c1 [Compound 23a]
- Ki (BChE (from horse serum); [2]): 10 µM
- Ki (human fXa; [1]): 0.59 µM
- Ki (α-chymotrypsin): > 50 µM
- Ki (bovine thrombin): 42.4 µM
- inhibition at 50 µM (AChE (from electric eel)): 1%

SMILES: N=C(N)c1cccc(NC(=O)CC(=O)NCc2ccc(-c3ccccc3F)cc2)c1 [Compound 19e]
- Ki (BChE (from horse serum); [2]): 7.7 µM
- Ki (human fXa; [1]): 0.93 µM and 0.932 µM
- Ki (α-chymotrypsin): > 50 µM
- Ki (bovine thrombin): 14.6 µM
- inhibition at 50 µM (AChE (from electric eel)): 35%

SMILES: N=C(N)c1ccc(NC(=O)CC(=O)NCCCCc2ccccc2)cc1 [Compound 18e]
- Ki (human fXa; [1]): 18.6 µM
- Ki (bovine thrombin): 5.5 µM

SMILES: N=C(N)c1ccc(NC(=O)CC(=O)NCc2ccc(-c3ccccc3)cc2)cc1 [Compound 19c]
- Ki (human fXa; [1]): > 50 µM
- Ki (bovine thrombin): > 50 µM

SMILES: N=C(N)c1cccc(NC(=O)CC(=O)N2CCC(Oc3ccc(F)cc3F)CC2)c1 [Compound 22b]
- inhibition at 50 µM (BChE (from horse serum)): 25%
- Ki (human fXa; [1]): 0.089 µM
- Ki (α-chymotrypsin): > 50 µM
- Ki (bovine thrombin): > 50 µM
- Ki (AChE (from electric eel); [3]): 2.31 µM

SMILES: N=C(N)c1cccc(NC(=O)CC(=O)N2CCC(Oc3ccc(F)cc3)CC2)c1 [Compound 22a]
- inhibition at 50 µM (BChE (from horse serum)): 22%
- Ki (human fXa; [1]): 0.35 µM
- Ki (α-chymotrypsin): > 50 µM
- Ki (bovine thrombin): > 50 µM
- Ki (AChE (from electric eel); [3]): 1.88 µM

SMILES: COc1ccc(CCOc2cccc(NC(=O)CC(=O)Nc3cccc(C(=N)N)c3)c2)cc1 [Compound 20b]
- Ki (BChE (from horse serum); [2]): 5.84 µM
- Ki (human fXa; [1]): 0.205 µM
- Ki (α-chymotrypsin): > 50 µM
- Ki (bovine thrombin): 6.66 µM
- Ki (AChE (from electric eel); [3]): 1.56 µM

SMILES: N=C(N)c1ccc(NC(=O)CNC(=O)Cc2ccccc2)cc1 [Compound 4a]
- Ki (human fXa; [1]): > 50 µM
- Ki (bovine thrombin): 39.4 µM

SMILES: N=C(N)c1cccc(NC(=O)CC(=O)N2CCN(c3ccc(F)cc3)CC2)c1 [Compound 21a]
- Ki (BChE (from horse serum); [2]): 10 µM
- Ki (human fXa; [1]): 0.423 µM
- Ki (α-chymotrypsin): > 50 µM
- Ki (bovine thrombin): 31.4 µM
- Ki (AChE (from electric eel); [3]): 4.68 µM

SMILES: N=C(N)c1cccc(NC(=O)CC(=O)N2CCC(Oc3ccc(F)c(F)c3)CC2)c1 [Compound 22c]
- Ki (BChE (from horse serum); [2]): 10.9 µM
- Ki (human fXa; [1]): 0.12 µM
- Ki (α-chymotrypsin): > 50 µM
- Ki (bovine thrombin): 27 µM
- Ki (AChE (from electric eel); [3]): 2.68 µM

SMILES: N=C(N)c1cccc(NC(=O)CNC(=O)Cc2ccc(-c3ccc(F)cc3F)cc2)c1 [Compound 4c]
- Ki (human fXa; [1]): 1.01 µM
- decrease of anti-fXa activity from malonamide 19h to glycinamide 4c (human fXa; ratio of Ki, relative to 19h): about 20 times
- Ki (α-chymotrypsin): 35 µM
- Ki (bovine thrombin): 10.7 µM

SMILES: N=C(N)c1ccc(NC(=O)CC(=O)NCc2ccccc2)cc1 [Compound 18a]
- Ki (human fXa; [1]): 23.2 µM
- Ki (bovine thrombin): > 50 µM

SMILES: N=C(N)c1ccc(NC(=O)CC(=O)NCCc2ccccc2)cc1 [Compound 18c]
- Ki (human fXa; [1]): > 50 µM
- Ki (bovine thrombin): > 50 µM

SMILES: N=C(N)c1cccc(NC(=O)CC(=O)NCc2ccccc2)c1 [Compound 18b]
- Ki (human fXa; [1]): 12.3 µM
- Ki (bovine thrombin): > 50 µM

SMILES: Cc1ccc(CNC(=O)CC(=O)Nc2cccc(C(=N)N)c2)cc1 [Compound 19b]
- Ki (human fXa; [1]): 4.2 µM
- Ki (bovine thrombin): 36.6 µM

SMILES: N=C(N)c1cccc(NC(=O)CC(=O)NCc2ccc(-c3ccccc3)cc2)c1 [Compound 19d]
- inhibition at 50 µM (BChE (from horse serum)): 28%
- Ki (human fXa; [1]): 1.56 µM
- Ki (α-chymotrypsin): 4.3 µM
- Ki (bovine thrombin): > 50 µM
- Ki (AChE (from electric eel); [3]): 9.33 µM

SMILES: CC(C)N1CCC(Oc2ccc(NC(=O)CC(=O)Nc3cccc(C(=N)N)c3)cc2)CC1 [Compound 23b]
- Ki (BChE (from horse serum); [2]): 0.65 µM
- Ki (human fXa; [1]): 2.3 µM
- Ki (α-chymotrypsin): > 50 µM
- Ki (bovine thrombin): > 50 µM
- Ki (AChE (from electric eel); [3]): 1.3 µM

SMILES: Cc1ccc(CNC(=O)CC(=O)Nc2ccc(C(=N)N)cc2)cc1 [Compound 19a]
- Ki (human fXa; [1]): 4.4 µM
- Ki (bovine thrombin): 36.5 µM

SMILES: N=C(N)c1cccc(NC(=O)CC(=O)NCc2ccc(-c3cccc(F)c3)cc2)c1 [Compound 19f]
- Ki (BChE (from horse serum)): 8.09 µM
- Ki (human fXa; [1]): 0.35 µM and 0.348 µM
- Ki (α-chymotrypsin): 26.5 µM
- Ki (bovine thrombin): 18.8 µM
- Ki (AChE (from electric eel); read-out: Ki AchE): 8.11 µM

SMILES: N=C(N)c1cccc(NC(=O)CC(=O)Nc2cccc(OCCc3ccc(F)cc3)c2)c1 [Compound 20a]
- Ki (BChE (from horse serum); [2]): 1.02 µM
- Ki (human fXa; [1]): 0.413 µM
- Ki (α-chymotrypsin): > 50 µM
- Ki (bovine thrombin): 12 µM
- Ki (AChE (from electric eel); [3]): 10 µM

SMILES: N=C(N)c1cccc(NC(=O)CNC(=O)Cc2ccccc2)c1 [Compound 4b]
- Ki (human fXa; [1]): 25.6 µM
- Ki (bovine thrombin): 24.1 µM

From PMC9268553 (Molecules, 2022)
